# In patent US6369057B1, “Quinoxalines, processes for their preparation and their use” (Aventis Pharma Deutschland GmbH, priority 1991, dated 2002):
# System: HIV
# Assay: Test of preparations against HIV in cell culture (T-cell culture assay)
# Type: cell-based
# Details: Human immunodeficiency virus 1, 72 h; lowest concentration where no giant cells were observed; HIV-infected lymphocytes from donor blood, 3 days at 37° C.
# Experimental: Test of Preparations Against HIV in Cell Culture
# Complete medium additionally contains 20% fetal calf serum and 40 IU/ml recombinant interleukin 2.
# Lymphocytes which have been isolated from fresh donor blood by means of Ficoll gradient centrifugation are cultured for 36 hours in complete medium with an addition of 2 μg/ml phytohemagglutinin (Wellcome) at 37° C. under 5% of CO2. After 10% of DMSO has been added, the cells are frozen at a density of 5 [formula]10^6 and stored in liquid nitrogen. For the test, the cells are defrosted, washed in RPMI medium and cultured for 3-4 days in the complete medium.
# The test preparations were dissolved in DMSO at a concentration of 16.7 mg/ml and diluted in complete medium to 1 mg/ml.
# 0.4 ml of medium was introduced into 24-multiwell dishes. 0.1 ml of the dissolved preparation was added to the upper row of the dish, and, by transferring 0.1 ml portions, a geometric dilution series was established. Controls without preparation always contained 0.4 ml of complete medium containing 0.5% of DMSO. Lymphocyte cultures with a cell density of 5 [formula]10^5 cells/ml were infected by adding 1/50 volume supernatant from HIV-infected lymphocyte cultures. The titer of these culture supernatants was determined by end-point titration as 1-5 [formula]10^6 infectious units/ml. After 30 minutes' incubation at 37° C., the infected lymphocytes were removed by centrifugation and taken up in an equal volume of medium. From this cell suspension, 0.6 ml aliquots were transferred into all wells of the test plate. The mixtures were incubated for 3 days at 37° C.
# The infected cell cultures were examined under the microscope for the presence of giant cells, which indicate active virus multiplication in the culture. The lowest concentration of preparation where no giant cells were observed was determined as inhibitory concentration against HIV. As a control, the supernatants from the culture plates were tested for the presence of HIV antigen with the aid of an HIV antigen test following the manufacturer's instructions (Organon).
row,Structure (SMILES),MIC [µg/mL]
1,"C[C@H]1C(=O)Nc2ccc(Cl)cc2N1C(=O)OCc1ccccc1 [Example III, (3S)-4-N-(Benzyloxycarbonyl)-6-chloro-3-methyl-3,4-di-hydroquinoxalin-2(1H)-one]",0.8
2,"CC(C)=CCN1c2ccccc2NC(=O)C1(C)C [Example XX, 3,3-Dimethyl-4-N-(3-methyl-2-buten-1-yl)-3,4-dihydroquinoxalin-2(1H)-one]",< 4
3,"CC(C)=CCN1c2cc(Cl)ccc2NC(=O)[C@H]1C [VI-B, (3R)-6-Chloro-3-methyl-4-N-(3-methyl-2-buten-1-yl)-3,4-dihydroquinoxalin-2(1H)-one]",20

# Same assay, conditions: lowest concentration where no giant cells were observed; HIV-infected lymphocytes from donor blood, 3 days at 37° C.
row,Structure (SMILES),T-cell culture assay MIC [µg/mL]
1,CC(C)=CCN1c2cc(F)ccc2NC(=O)C1C (stereo not drawn) [Example 3-67],<0.8
2,C=C(C)OC(=O)N1c2cc(Cl)ccc2NC(=O)C1CC (stereo not drawn) [Example 3-30],<0.01
3,C=CCOC(=O)N1c2cc(Cl)ccc2NC(=O)C1C (stereo not drawn) [Example 3-7],0.08
4,CC(C)OC(=O)N1c2cc(Cl)ccc2NC(=O)C1(C)C [Example 6-50],<0.01
5,CC(C)=CCN1c2c(Cl)cccc2NC(=O)C1C (stereo not drawn) [Example 3-52],>0.8
6,C=CCOC(=O)N1c2cc(Cl)ccc2NC(=S)C1(C)C [Example 7-21],<0.01
7,CC(C)=CCN1c2ccc(Cl)cc2NC(=O)C1C (stereo not drawn) [Example 3-53],>0.8
8,C=C(C)OC(=O)N1c2ccc(F)cc2NC(=O)C1C (stereo not drawn) [Example 3-66],>0.08
9,CC(C)=CCN1c2ccc(F)cc2NC(=O)C1C (stereo not drawn) [Example 3-64],>0.8
10,CCCC(=O)N1c2cc(Cl)ccc2NC(=O)C1C (stereo not drawn) [Example 3-88],0.8
11,C#CCOC(=O)N1c2cc(Cl)ccc2NC(=O)C1C (stereo not drawn) [Example 11-3],<0.8
12,C=C(C)OC(=O)N1c2ccc(F)cc2NC(=O)C1(C)C [Example 6-32],<0.08
13,C=CCOC(=O)N1c2cc(Cl)ccc2NC(=O)C1C(C)CC (stereo not drawn) [Example 3-80],0.4
14,CC(C)CCN1c2cc(Cl)ccc2NC(=O)C1C (stereo not drawn) [Example 10-5],<0.8
15,CC1C(=O)Nc2ccc(Cl)cc2N1Cc1ccc(Br)cc1 (stereo not drawn) [Example 10-14],<0.8
16,CC1C(=O)Nc2ccc(Cl)cc2N1C1CCC1 (stereo not drawn) [Example 10-4],0.4

row,Structure (SMILES),T-cell culture assay MIC [µg/mL]
1,CC#CCOC(=O)N1c2cc(Cl)ccc2NC(=O)C1C (stereo not drawn) [Example 11-4],0.8
2,CC1C(=O)Nc2ccc(Cl)cc2N1Cc1ccccc1 (stereo not drawn) [Example 3-21],0.16
3,CCC1(CC)C(=O)Nc2cc(C)ccc2N1CC=C(C)C [Example 6-20],<0.8
4,C=C(C)OC(=O)N1c2cc(C)c(C)cc2NC(=O)C1(C)C [Example 6-36],<0.8
5,CC(C)=CCN1c2ccc(F)cc2NC(=O)C1(C)C [Example 6-22],>0.8
6,C=C(C)OC(=O)N1c2ccc(Oc3ccccc3)cc2NC(=O)C1C (stereo not drawn) [Example 3-73],>0.4
7,C=C(C)OC(=O)N1c2cc(Cl)ccc2NC(=O)C1CCSC (stereo not drawn) [Example 3-44],<0.8
8,C=C(C)OC(=O)N1c2ccc(Cl)cc2NC(=O)C1CCSC (stereo not drawn) [Example 3-62],<4.0
9,C=C(C)OC(=O)N1c2cc(OCCOC)ccc2NC(=O)C1CC (stereo not drawn) [Example 3-33],0.4
10,C=C(C)OC(=O)N1c2ccc(Oc3ccccc3)cc2NC(=O)C1(C)C [Example 6-39],0.4
11,CC=CCOC(=O)N1c2cc(Cl)ccc2NC(=O)C1C (stereo not drawn) [Example 11-1],<0.8
12,C=C(C)OC(=O)N1c2ccc(OCC)cc2NC(=O)C1(C)C [Example 6-33],>0.8
13,C=CCOC(=O)N1c2cc(Cl)ccc2NC(=O)C1CC(C)C (stereo not drawn) [Example 3-48],<0.8
14,CC(C)COC(=O)N1c2cc(Cl)ccc2NC(=O)C1C (stereo not drawn) [Example 3-26],0.4
15,CCCCC(=O)N1c2cc(Cl)ccc2NC(=O)C1C (stereo not drawn) [Example 3-87],>0.8

# Biological target: T1, HIV reverse transcriptase (RT) (Human immunodeficiency virus type 1 group M subtype B, UniProt P03366)
# T1 construct: The enzyme RT (from HIV cloned in E. coli); purchased HT-Biotechnology Ltd, Cambridge, UK; host or cells: E. coli
# Assay: Assay for HIV reverse transcriptase inhibition (scintillation proximity assay)
# Type: biochemical
# Details: RT from HIV cloned in E. coli; SPA, 60 minutes (37° C.)
# Experimental: Assay of the Substances for HIV Reverse Transcriptase Inhibition
# The activity of reverse transcriptase (RT) was determined with the aid of a scintillation proximity assay (SPA).
# The reagent kit for the RT-SPA was obtained from Amersham/Buchler (Braunschweig).
# The enzyme RT (from HIV cloned in E. coli) originated from HT-Biotechnology Ltd, Cambridge, UK.
# The assay was carried out using the manufacturer's (Amersham) protocol manual, with the following modifications: bovine serum albumin was added to the assay buffer to give an end concentration of 0.5 mg/ml the assay was carried out in Eppendorf reaction vessels, using 100 μl volume per batch the manufacturer's RT concentrate (5000 U/ml) was diluted in Tris-HCl buffer 20 mM; pH 7.2; 30% of glycerol, to an activity of 15 U per ml the incubation time for the mixtures was 60 minutes (37° C.) after stopping the reaction and “developing” with the bead suspension, 130 μl of mixture were transferred to 4.5 ml of Tris-HCl buffer, 10 mM; pH 7.4; 0.15 M NaCl, and the tritium activity was measured by means of a [formula]-counter.
# For a pre-assay for inhibitory activity, the substances were dissolved in DMSO (stock solution c=1 mg/ml), and tested as a 10^−1, 10^−2, 10^−3, etc., dilution in DMSO.
# To determine IC50 values, the inhibitor stock solutions were diluted further in Tris-HCl buffer, 50 mM, pH 8, and tested in suitable concentrations.
# The concentration corresponding to a 50% enzyme inhibition was determined from a plot of RT activity versus log Clnh.
row,Structure (SMILES),Reverse Transcriptase Assay IC50
1,C=C(C)OC(=O)N1c2cc(Cl)ccc2NC(=O)C1CC (stereo not drawn) [Example 3-30],0.025 µg/mL
2,C=CCOC(=O)N1c2cc(Cl)ccc2NC(=O)C1C (stereo not drawn) [Example 3-7],0.08 µg/mL
3,CC(C)OC(=O)N1c2cc(Cl)ccc2NC(=O)C1(C)C [Example 6-50],0.01 to 0.1 µg/mL
4,C=CCOC(=O)N1c2cc(Cl)ccc2NC(=S)C1(C)C [Example 7-21],0.01 to 0.1 µg/mL
5,C=CCOC(=O)N1c2cc(Cl)ccc2NC(=S)C1CCC (stereo not drawn) [Example 7-18],0.01 to 0.1 µg/mL
6,C=C(C)OC(=O)N1c2ccc(Cl)cc2NC(=O)C1(C)C [Example 6-9],approx. 1 μg/ml
7,C=CCOC(=O)N1c2cc(Cl)ccc2NC(=S)C1CC (stereo not drawn) [Example 7-15],0.01 to 0.1 µg/mL
8,CC1C(=S)Nc2ccc(Cl)cc2N1Cc1ccccn1 (stereo not drawn) [Example 7-19],0.01 to 0.1 µg/mL
9,CCOC(=O)N1c2cc(Cl)ccc2NC(=S)C1(C)C [Example 7-24],<0.01 µg/mL
10,COc1ccc2c(c1)N(C(=O)OC(C)C)C(CSC)C(=S)N2 (stereo not drawn) [Example 7-31],<0.01 µg/mL
11,CC1C(=O)Nc2ccc(Cl)cc2N1Cc1ccsc1 (stereo not drawn) [Example 10-34],0.1 to 1 µg/mL
12,CSCC1C(=S)Nc2ccc(Cl)cc2N1C(=O)OC(C)C (stereo not drawn) [Example 7-28],<0.01 µg/mL
13,C=CCSC(=O)N1c2cc(Cl)ccc2NC(=O)C1C (stereo not drawn) [Example 11-6],0.1 to 1 µg/mL
14,C=C(C)OC(=O)N1c2cc(OC)ccc2NC(=S)C1CSC (stereo not drawn) [Example 7-30],<0.01 µg/mL
15,CC1C(=S)Nc2ccc(Cl)cc2N1Cc1cccnc1 (stereo not drawn) [Example 7-20],0.1 to 1 µg/mL
16,CSCC1C(=O)Nc2ccc(Cl)cc2N1C(=O)OC(C)C (stereo not drawn) [Example 3-127],0.01 to 0.1 µg/mL
17,C=C(C)OC(=O)N1c2cc(Cl)ccc2NC(=O)C1(C)C [Example 6-8],0.1 to 1 µg/mL
18,CCCOC(=O)N1c2cc(Cl)ccc2NC(=S)C1(C)C [Example 7-25],<0.01 µg/mL
19,C=C(C)OC(=O)N1c2cc(Cl)ccc2NC(=S)C1CCC (stereo not drawn) [Example 7-17],0.01 to 0.1 µg/mL
20,C=C(C)COC(=O)N1c2cc(Cl)ccc2NC(=O)C1C (stereo not drawn) [Example 11-7],approx. 1 μg/ml
21,CSCCOC(=O)N1c2cc(Cl)ccc2NC(=O)C1C (stereo not drawn) [Example 11-13],approx. 1 μg/ml
22,C=C(C)OC(=O)N1c2cc(OC)ccc2NC(=O)C1CSC (stereo not drawn) [Example 3-128],0.01 to 0.1 µg/mL
23,CCC1C(=S)Nc2ccc(Cl)cc2N1Cc1ccccn1 (stereo not drawn) [Example 7-26],0.01 to 0.1 µg/mL
24,CC1C(=O)Nc2ccc(Cl)cc2N1C(=O)SCc1ccccc1 (stereo not drawn) [Example 11-5],0.1 to 1 µg/mL
25,C=C(C)OC(=O)N1c2cc(Cl)ccc2NC(=O)C1C(C)C (stereo not drawn) [Example 3-37],0.1 to 1 µg/mL
26,C=CCOC(=O)N1c2cc(Cl)ccc2NC(=O)C1CCC (stereo not drawn) [Example 3-35],0.1 to 1 µg/mL
27,CSCC1C(=S)Nc2ccc(Cl)cc2N1Cc1ccccn1 (stereo not drawn) [Example 7-29],0.01 to 0.1 µg/mL
28,C=C(C)OC(=O)N1c2cc(Cl)ccc2NC(=O)C1CCC (stereo not drawn) [Example 3-34],0.1 to 1 µg/mL
29,COc1ccc2c(c1)N(C(=O)OC(C)C)C(CSC)C(=O)N2 (stereo not drawn) [Example 3-129],0.01 to 0.1 µg/mL
